± gives the expanded uncertainty stated by the source.
Columns and labels:
[1] = molar enthalpy of transition or fusion; conditions: 298.15 K; Crystal; Microcalorimetry
[2] = molar enthalpy of vaporization or sublimation; conditions: 298.15 K; Crystal; Microcalorimetry

In the case of `O=c1c2ccccc2sc2ccccc12` [thioxanthone], the “molar enthalpy of transition or fusion” value [1] is reported as 106 ± 2.4 kJ/mol.

For `O=C1CCSCC1` [tetrahydro-4H-thiopyran-4-one], the molar enthalpy [2] was 73.4 ± 2.8 kJ/mol.

Source: the NIST ThermoML archive (doi:10.1021/je100603q)
